Structures can show the parent of a compound that is named as a salt.
Legend:
Abl (T315I) = molecular target: T1, Abl (T315I) (Homo sapiens, UniProt P00519, T315I); test: Abl (T315I) Kinase Assay (KinaseGlo luminescent detection of residual ATP); type: biochemical; conditions: Abl (T315I) IC50 (nM), Abl (T315I) (Upstate, 17 ng/well), Abltide 100 uM, ATP 500 nM, 60 minutes at 37° C.
T1 construct: purchased Upstate
Procedure: The assay was performed similarly to the Abl kinase assay. Abl (T315I) (Upstate, 17 ng/well); Abltide substrate (100 uM) and ATP (500 nM) comprised the reaction mixture. Compound was similarly diluted, and the reaction plate was incubated for 60 minutes at 37° C.

Abl kinase = Abl kinase (Homo sapiens, UniProt P00519); test: biochemical; conditions: Abl IC50 (nM), Abl kinase (Invitrogen, 20 ng/well), Abltide 100 μM, ATP 500 nM, 37° C. for 60 minutes, top concentration 10 uM

SMILES | IC50 (Abl (T315I)) | IC50 (Abl kinase)
O=S(=O)(c1ccc(Nc2ncc(/C=C/c3ccc(C(F)F)cc3)cn2)cc1)C1CCNCC1 [5-(4-(difluoromethyl)styryl)-N-(4-(piperidin-4-ylsulfonyl)phenyl)pyrimidin-2-amine. Triflate] | 1330 nM | 429 nM
O=S(=O)(c1ccc(Nc2ncc(/C=C/c3cccc4[nH]ncc34)cn2)cc1)N1CCNCC1 [{5-[2-(1H-Indazol-4-yl)-vinyl]-pyrimidin-2-yl}-[4-(piperazine-1-sulfonyl)-phenyl]-amine] | 289 nM | 44 nM
Nc1nc2cc(/C=C/c3cnc(Nc4ccc(S(=O)(=O)C5CCNCC5)cc4)nc3)ccc2s1 [5-((E)-2-(2-(4-(piperidin-4-ylsulfonyl)phenylamino)pyrimidin-5-yl)vinyl)benzo[d]thiazol-2-amine Hydrochloride] | 416 nM | 101 nM
CN1CCC(S(=O)(=O)c2ccc(Nc3ncc(/C=C/c4cccc5[nH]ncc45)cn3)cc2)CC1 [N-(4-(1-methylpiperidin-4-ylsulfonyl)phenyl)-5-((E)-2-(1H-indazol-4-yl)vinyl)pyrimidin-2-amine] | 2040 nM | 32 nM
C(=C\c1cccc2[nH]ncc12)/c1cnc(Nc2ccc(OC3CCNCC3)cc2)nc1 [5-[(E)-2-(1H-indazol-4-yl)vinyl]-N-[4-(piperidin-4-yloxy)phenyl]pyrimidin-2-amine trifluoroacetic acid salt] | 169 nM | 7.9 nM
O=S(=O)(c1ccc(Nc2ncc(/C=C/c3ccc(O)c(O)c3)cn2)cc1)C1CCNCC1 [4-((E)-2-(2-(4-(piperidin-4-ylsulfonyl)phenylamino)pyrimidin-5-yl)vinyl)benzene-1,2-diol Hydrochloride] | 40 nM | 25 nM
Cc1cc(Nc2ncc(/C=C/c3ccc4nc(N)sc4c3)cn2)ccc1S(=O)(=O)N1CCCNCC1 [(E)-6-(2-(2-(4-(1,4-diazepan-1-ylsulfonyl)-3-methylphenylamino)pyrimidin-5-yl)vinyl)benzo[d]thiazol-2-amine] | 593 nM | 1060 nM
Nc1nc2ccc(/C=C/c3cnc(Nc4ccc(S(=O)(=O)C5CCNCC5)cc4)nc3)cc2s1 [6-[(E)-2-(2-{[4-(piperidin-4-ylsulfonyl)phenyl]amino}pyrimidin-5-yl)vinyl]-1,3-benzothiazol-2-amine trifluoroacetic acid salt] | 58 nM | 50 nM
O=S(=O)(c1ccc(Nc2ncc(/C=C/c3ccc(Cl)c4[nH]ccc34)cn2)cc1)C1CCNCC1 [5-((E)-2-(7-chloro-1H-indol-4-yl)vinyl)-N-(4-(piperidin-ylsulfonyl)phenyl)pyrimidin-2-amine Hydrochloride] | 156 nM | 15 nM
O=S(=O)(c1ccc(Nc2ncc(/C=C/c3cccc(O)c3)cn2)cc1)C1CCNCC1 [3-(2-{2-[4-(Piperidine-4-sulfonyl)-phenylamino]-pyrimidin-5-yl}-vinyl)-phenol] | 22 nM | 1.7 nM
O=S(=O)(c1ccc(Nc2ncc(/C=C/c3cccc4[nH]ncc34)cn2)cc1NCCO)N1CCNCC1 [2-{[5-({5-[(E)-2-(1H-indazol-4-yl)vinyl]pyrimidin-2-yl}amino)-2-(piperazin-1-ylsulfonyl)phenyl]amino}ethanol] | 233 nM | 6.5 nM
O=S(=O)(c1ccc(Nc2ccc(/C=C/c3cccc(O)c3)cn2)cc1)C1CCNCC1 [3-((E)-2-(6-(4-(piperidin-4-ylsulfonyl)phenylamino)pyridin-3-yl)vinyl)phenol hydrochloride] | 192 nM | 32 nM
O=S(=O)(NCCO)c1ccc(Nc2ncc(/C=C/c3ccccc3)cn2)cc1N1CCNCC1 [N-(2-hydroxyethyl)-4-({5-[(E)-2-phenylvinyl]pyrimidin-2-yl}amino)-2-piperazin-1-ylbenzenesulfonamide trifluoroacetic acid salt] | 7340 nM | 406 nM
O=S(=O)(c1ccc(Nc2ncc(/C=C/c3cc(C(F)(F)F)cc4[nH]nnc34)cn2)cc1)C1CCNCC1 [5-((E)-2-(6-(trifluoromethyl)-1H-benzo[d][1,2,3]triazol-4-yl)vinyl)-N-(4-(piperidin-4-ylsulfonyl)phenyl)pyrimidin-2-amine] | 70 nM | 130 nM
O=S(=O)(c1ccc(Nc2ncc(/C=C/c3cccc4[nH]ccc34)cn2)cc1)C1CCNCC1 [5-((E)-2-(1H-indol-4-yl)vinyl)-N-(4-(piperidin-4-2-amine] | 154 nM | 6.3 nM
Nc1cccc(/C=C/c2cnc(Nc3ccc(S(=O)(=O)C4CCNCC4)cc3)nc2)n1 [5-((E)-2-(6-aminopyridin-2-yl)vinyl)-N-(4-(piperidin-4-ylsulfonyl)phenyl)pyrimidin-2-amine Hydrochloride] | 1210 nM | 56 nM
CN(C)CCN(C1CCNCC1)S(=O)(=O)c1ccc(Nc2ncc(/C=C/c3cccc4[nH]ccc34)cn2)cc1 [N-[2-(dimethylamino)ethyl]-4-({5-[(E)-2-(1H-indol-4-yl)vinyl]pyrimidin-2-yl}amino)-N-piperidin-4-ylbenzenesulfonamide] | 182 nM | 25 nM
NC1Cc2ccc(/C=C/c3cnc(Nc4ccc(S(=O)(=O)N5CCC(CO)CC5)cc4)nc3)cc2C1 (stereo not shown) [[1-(4-{5-[2-(2-Amino-indan-5-yl)-vinyl]-pyrimidin-2-ylamino}-benzenesulfonyl)-piperidin-4-yl]-methanol] | 2790 nM | 13700 nM
NC1CCN(S(=O)(=O)c2ccc(Nc3ncc(/C=C/c4cccc5[nH]ccc45)cn3)cc2)CC1 [N-{4-[(4-aminopiperidin-1-yl)sulfonyl]phenyl}-5-[(E)-2-(1H-indol-4-yl)vinyl]pyrimidin-2-amine] | 347 nM | 13 nM
O=S(=O)(c1ccc(Nc2ncc(/C=C/c3cccc4[nH]ccc34)cn2)cc1)C1CCN(CCO)CC1 [2-(4-(4-(5-((E)-2-(1H-indol-4-yl)vinyl)pyrimidin-2-ylamino)phenylsulfonyl)piperidin-1-yl)ethanol Hydrochloride] | 202 nM | 8.4 nM
O=S(=O)(NCCO)c1ccc(Nc2ncc(/C=C/c3cccc(O)c3)cn2)cc1N1CCNCC1 [N-(2-hydroxyethyl)-4-({5-[(E)-2-(3-hydroxyphenyl)vinyl]pyrimidin-2-yl}amino)-2-piperazin-1-ylbenzenesulfonamide trifluoroacetic acid salt] | 514 nM | 66 nM

Other lines, results leading:

IC50 (Abl (T315I)) | IC50 (Abl kinase) | SMILES
176 nM | 6.2 nM | O=S(=O)(NC1CCNCC1)c1ccc(Nc2ncc(/C=C/c3cccc4[nH]ncc34)cn2)cc1 [4-{5-[2-(1H-Indazol-4-yl)-vinyl]-pyrimidin-2-ylamino}-N-piperidin-4-yl-benzenesulfonamide hydrochloride]
16 nM | 41 nM | O=S(=O)(c1ccc(Nc2ncc(/C=C/c3cc(Cl)cc4[nH]nnc34)cn2)cc1)N1CCCNCC1 [[4-([1,4]Diazepane-1-sulfonyl)-phenyl]-{5-[2-(6-chloro-1H-benzotriazol-4-yl)-vinyl]-pyrimidin-2-yl}-amine]
12 nM | 7.2 nM | O=S(=O)(c1ccc(Nc2ncc(/C=C/c3cc(F)cc4[nH]nnc34)cn2)cc1)C1CCNCC1 [5-((E)-2-(6-fluoro-1H-benzo[d][1,2,3]triazol-4-yl)vinyl)-N-(4-(piperidin-4-ylsulfonyl)phenyl)pyrimidin-2-amine trifluoroacetate]
1010 nM | 506 nM | O=C(Nc1ccc(/C=C/c2cnc(Nc3ccc(S(=O)(=O)C4CCNCC4)cc3)nc2)cc1)c1cccc(C(F)(F)F)c1 [N-(4-((E)-2-(2-(4-(piperidin-4-ylsulfonyl)phenylamino)pyrimidin-5-yl)vinyl)phenyl)-3-(trifluoromethyl)benzamide Hydrochloride]
53000 nM | 3670 nM | N=C(N)c1cccc(/C=C/c2cnc(Nc3ccc(S(=O)(=O)C4CCNCC4)cc3)nc2)c1 [3-(2-{2-[4-(Piperidine-4-sulfonyl)-phenylamino]-pyrimidin-5-yl}-vinyl)-benzamidine]
87 nM | 360 nM | Nc1nc2ccc(/C=C/c3cnc(Nc4ccc(C(=O)N5CCNCC5)cc4)nc3)cc2s1 [(4-{5-[2-(2-Amino-benzothiazol-6-yl)-vinyl]-pyrimidin-2-ylamino}-phenyl)-piperazin-1-yl-methanone]
248 nM | 16 nM | Cc1cc(Nc2ncc(/C=C/c3cccc(O)c3)cn2)cc(C)c1S(=O)(=O)N(C)CCN1CCCC1 [4-{5-[2-(3-Hydroxy-phenyl)-vinyl]-pyrimidin-2-ylamino}-2,6,N-trimethyl-N-(2-pyrrolidin-1-yl-ethyl)-benzenesulfonamide]
6980 nM | 10800 nM | Nc1nc2ccc(/C=C/c3cnc(Nc4ccc(S(=O)(=O)N5CCCNCC5)cc4F)nc3)cc2s1 [(E)-6-(2-(2-(4-(1,4-diazepan-1-ylsulfonyl)-2-fluorophenylamino)pyrimidin-5-yl)vinyl)benzo[d]thiazol-2-amine hydrochloride]
194 nM | 437 nM | Nc1nc2ccc(/C=C/c3cnc(Nc4ccc(S(=O)(=O)N5CCC(CO)CC5)cc4)nc3)cc2s1 [(1-{[4-({5-[(E)-2-(2-amino-yl)vinyl]pyrimidin-2-amino)phenyl]sulfonyl}piperidin-4-yl)methanol]
113 nM | 10 nM | CN(C)CCN(C1CCNCC1)S(=O)(=O)c1ccc(Nc2ncc(/C=C/c3cccc4[nH]ncc34)cn2)cc1 [N-[2-(dimethylamino)ethyl]-4-({5-[(E)-2-(1H-indazol-4-yl)vinyl]pyrimidin-2-yl}amino)-N-piperidin-4-ylbenzenesulfonamide]
214 nM | 432 nM | Nc1nc2ccc(/C=C/c3cnc(Nc4ccc(S(=O)(=O)N5CCCC(O)C5)cc4)nc3)cc2s1 (stereo not shown) [(E)-1-(4-(5-(2-(2-aminobenzo[d]thiazol-6-yl)vinyl)pyrimidin-2-ylamino)phenylsulfonyl)piperidin-3-ol]
